Reference: patent publication US8815857B2 (Boehringer Ingelheim International GmbH, priority 2011, dated 2014)
Converted amounts (≈) assume the structure as drawn.

How the values were obtained:
[1] = target: T1, human soluble guanylate cyclase alpha 1 and beta 1 subunits (sGC) stably expressed in Chinese hamster ovary cells (Homo sapiens, UniProt Q02108+Q02153); test: sGC cellular activator assay: cGMP in CHO cells expressing human sGC, preincubated with ODQ; assay type: cell-based; conditions: 40 microM ODQ preincubation, 30 min at room temperature, presence or absence of 50% human serum not given, read-out: EC50 nM, Activity of Compounds in Cellular Assay
T1 construct: expressed in transfected cells; host or cells: Chinese hamster ovary cells, stably transfected
T1 sequence (Q02108 1-690 partner): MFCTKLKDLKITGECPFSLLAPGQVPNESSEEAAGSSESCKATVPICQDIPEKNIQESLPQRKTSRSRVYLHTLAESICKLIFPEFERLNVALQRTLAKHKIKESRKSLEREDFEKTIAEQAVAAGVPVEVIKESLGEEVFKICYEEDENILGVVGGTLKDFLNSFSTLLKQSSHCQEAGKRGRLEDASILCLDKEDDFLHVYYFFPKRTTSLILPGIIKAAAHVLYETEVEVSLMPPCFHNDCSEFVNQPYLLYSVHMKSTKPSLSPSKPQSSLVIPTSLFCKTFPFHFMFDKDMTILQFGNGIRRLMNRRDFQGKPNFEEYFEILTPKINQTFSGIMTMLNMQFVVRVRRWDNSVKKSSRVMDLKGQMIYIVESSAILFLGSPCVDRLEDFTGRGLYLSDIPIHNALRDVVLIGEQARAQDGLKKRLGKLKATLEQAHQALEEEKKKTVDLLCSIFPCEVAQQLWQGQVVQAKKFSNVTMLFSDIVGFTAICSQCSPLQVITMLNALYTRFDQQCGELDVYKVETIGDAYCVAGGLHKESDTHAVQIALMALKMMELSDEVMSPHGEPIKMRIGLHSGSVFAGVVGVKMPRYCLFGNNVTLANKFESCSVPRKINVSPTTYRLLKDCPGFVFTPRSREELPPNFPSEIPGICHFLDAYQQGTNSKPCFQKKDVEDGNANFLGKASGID
T1 sequence (Q02153 1-619): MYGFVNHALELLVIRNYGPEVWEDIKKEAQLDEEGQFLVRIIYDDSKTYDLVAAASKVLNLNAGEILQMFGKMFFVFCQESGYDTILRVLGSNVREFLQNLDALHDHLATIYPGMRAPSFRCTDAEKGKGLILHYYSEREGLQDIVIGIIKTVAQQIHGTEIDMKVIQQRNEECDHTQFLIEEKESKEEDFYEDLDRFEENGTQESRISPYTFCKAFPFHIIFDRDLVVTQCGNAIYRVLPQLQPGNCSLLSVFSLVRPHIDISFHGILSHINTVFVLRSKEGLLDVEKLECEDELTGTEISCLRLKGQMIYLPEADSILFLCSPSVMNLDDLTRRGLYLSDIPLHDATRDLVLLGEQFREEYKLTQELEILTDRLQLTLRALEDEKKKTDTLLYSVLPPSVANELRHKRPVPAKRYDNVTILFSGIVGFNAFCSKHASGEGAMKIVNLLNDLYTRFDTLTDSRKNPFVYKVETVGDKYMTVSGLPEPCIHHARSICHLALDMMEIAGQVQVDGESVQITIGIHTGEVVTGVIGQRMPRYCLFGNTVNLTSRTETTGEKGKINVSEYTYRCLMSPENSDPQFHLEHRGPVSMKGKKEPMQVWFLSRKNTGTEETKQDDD
Protocol: The sGC cellular activator assay is performed in the presence and absence of 50% human serum (HS) using Chinese hamster ovary cells that have been stably transfected to express the human soluble guanylate cyclase alpha 1 and beta 1 subunits (sGC). Cells are preincubated with 40 microM 1H-[1,2,4]oxadiazolo[4,3-a]quinoxalin-1-one (ODQ), an sGC inhibitor, for one hour in buffer containing 0.1% bovine serum albumin and 3-isobutyl-1-methylxanthine (IBMX). Concentration response curves are prepared for test compounds in DMSO. An intermediate dilution of the compounds is performed in either buffer containing IBMX or type AB HS containing IBMX. Diluted compounds are added to cells and they are incubated at room temperature for thirty minutes. cGMP is measured using a CisBio homogeneous time resolved fluorescence kit and the EC50 is calculated for each compound.

[2] = Assessment of solubility: HT solubility in pION buffer, UV spectrophotometry; conditions: kinetic from dmso stock
Protocol: Solubility is measured by the following method.
DMSO stock samples at 10 mM concentration are prepared. […] The samples are pierced and 100 ul of thawed samples are transferred into the PCR plate for analysis. Each sample is run in duplicate at each pH (pH 4.5 and 7.4). Up to 95 samples can be run in replicate at 2 pH's+1 DMSO (blank).
Preparation of pH 4.5 and 7.4 Buffers:
• pH 4.5 buffer:—To 12.5 of system solution (pION)qs to 500 mL of distilled water (pH 2.85-2.90); adjust the pH to pH 4.5 with 0.5 N NaOH. • pH 7.4 buffer: To 12.5 of system solution (pION)qs to 500 mL of distilled water (pH 2.85-2.90); adjust the pH to pH 7.4 with 0.5N NaOH. […] Procedure: Preparation of UV Blank Plate:
75 ul of buffer (pH 7.4 or pH 4.5) is added to UV plate followed by addition of 70 ul of N-propanol. The solution is mixed and the blank spectrum is read using spectrophotometer.
Preparation of Reference UV Plate:
10 ul of each stock sample (including DMSO control) is added to 190 ul of N-propanol to prepare the reference stock plate. Reference stock samples are mixed and 5 ul of each stock sample is added to UV blank plate after it is read spectrophotometrically. The reference stock sample is mixed with blank solution in UV plate and the reference spectrum is read using UV spectrophotometer.
Preparation of Sample for Incubation:
Solubility at pH 7.4:6 ul of each stock sample (including DMSO control) is added to the storage plate containing 600 ul of pH 7.4 buffer, mixed and incubated for 16-19 h. The plate is sealed well during the incubation process. The DMSO content in the sample is 1.0%. The concentration in deep well plates is 100 uM
6 ul of each stock sample (including DMSO control) is added to the deep well plate containing 600 ul of pH 4.5 buffer, mixed and incubated for 16-19 h. The plate is sealed well during the incubation process. The DMSO content in the sample is 1.0%. The concentration in deep well plates is 100 uM
Preparation of Sample UV Plate:
At the end of the incubation period, 100 uL of sample from the storage plate is vacuum filtered using a filter plate. This step wets the filters and the filtrate is discarded. Another 200 ul of the sample from the deep well plate is vacuum filtered using the same filter block but a clean filter plate. 75 ul of the filtrate from the filter plate is transferred to a UV sample plate. 75 ul of N-propanol is added to this UV plate. The solution is mixed and the spectrum is read using the UV spectrophotometer.
The spectra collected for blank, reference and sample from 250-498 nm is analyzed using pION software. If the sample precipitates out, the solubility is reported as XX μg/ml.

[3] = pH 6.8, aqueous buffer, Solubility (pH 6.8), pH 6.8
[4] = pION system solution buffer, pH 4.5, pH 4.5, aqueous buffer, Solubility (pH 4.5), pH 4.5 buffer, 16-19 h incubation, 1.0% DMSO
[5] = pION system solution buffer, pH 7.4, pH 7.4, aqueous buffer, Solubility (pH 7.4), pH 7.4 buffer, 16-19 h incubation, 1.0% DMSO

| Structure (SMILES) | EC50 [1] | solubility [2, 3] | solubility [2, 4] | solubility [2, 5] |
| --- | --- | --- | --- | --- |
| Cc1ccc(OCc2ccc(CN3CCS(=O)(=O)CC3)cc2C)c(-c2csc(N3CC4(CC4C(=O)O)C3)n2)c1 (centres unmarked) [Compound 252] | 260 nM | 0.2 µg/mL (≈ 0.352 µM) | < 0.1 µg/mL | – |
| Cc1ccc(OCc2ccc(CN3CCS(=O)(=O)CC3)cc2C)c(-c2csc(N3CC(CC(=O)O)C3)n2)c1 [Compound 253] | 380 nM | 0.29 µg/mL (≈ 0.522 µM) | 0.5 µg/mL (≈ 0.9 µM) | – |
| Cc1ccc(OCc2ccc(CN3CCOCC3)cc2C)c(-c2csc(N3CC(CC(=O)O)C3)n2)c1 [Compound 254] | 450 nM | 51 µg/mL (≈ 100 µM) | 40 µg/mL (≈ 78.8 µM) | – |
| Cc1ccc(OCc2ccc(CN3CCN(C(=O)C4CC4)CC3)cc2C)c(-c2csc(N3CC(C4(C(=O)O)CC4)C3)n2)c1 [Compound 255] | 480 nM | 0.94 µg/mL (≈ 1.56 µM) | 6 µg/mL (≈ 9.99 µM) | – |
| Cc1ccc(OCc2ccc(C(=O)N3CCOCC3)cc2C)c(-c2csc(N3CC4(CC4C(=O)O)C3)n2)c1 (centres unmarked) [Compound 256] | 500 nM | 82 µg/mL (≈ 154 µM) | 0.69 µg/mL (≈ 1.29 µM) | – |
| Cc1ccc(OCc2ccc(CN3CCOCC3)cc2C)c(-c2csc(N3CC4(CC4C(=O)O)C3)n2)c1 (centres unmarked) [Compound 257] | 540 nM | 45 µg/mL (≈ 86.6 µM) | 56 µg/mL (≈ 108 µM) | – |
| COC[C@]1(C(=O)O)[C@@H]2CC[C@H]1CN(c1nc(-c3cc(C)ccc3OCc3ccc(C(=O)N4CCCCC4)cc3C)cs1)C2 [Compound 258] | 550 nM | 8.2 µg/mL (≈ 13.6 µM) | < 0.1 µg/mL | – |
| Cc1ccc(OCc2ccc(CN3CCS(=O)(=O)CC3)cc2C)c(-c2csc(N3CC(C4(C(=O)O)CC4)C3)n2)c1 [Compound 259] | 580 nM | 19 µg/mL (≈ 32.7 µM) | < 0.1 µg/mL | – |
| Cc1ccc(OCc2ccc(C(=O)N3CCCCC3)cc2C)c(-c2csc(N3CC(C4(C(=O)O)CC4)C3)n2)c1 [Compound 260] | 590 nM | 14 µg/mL (≈ 25.7 µM) | < 0.1 µg/mL | – |
| Cc1ccc(OCc2ccc(CN3CCOCC3)cc2C)c(-c2csc(N3CC(C4(C(=O)O)CC4)C3)n2)c1 [Compound 261] | 710 nM | 6.4 µg/mL (≈ 12 µM) | 17 µg/mL (≈ 31.9 µM) | – |
| CCCC1(C(=O)O)C2CCC1CN(c1nc(-c3cc(C)ccc3OCc3ccc(C(=O)N4CCCCC4)cc3C)cs1)C2 (centres unmarked) [Compound 262] | 980 nM | 12 µg/mL (≈ 19.9 µM) | < 0.1 µg/mL | – |
| Cc1ccc(OCc2ccc(C(=O)N3CCCCC3)cc2C#N)c(-c2csc(N3C[C@H]4CC[C@@H](C3)[C@H]4C(=O)O)n2)c1 [Compound 263] | 13 nM | 58 µg/mL (≈ 102 µM) | 0.3 µg/mL (≈ 0.526 µM) | – |
| Cc1ccc(OCc2ccc(CN3CCOCC3)cc2C#N)c(-c2csc(N3C[C@H]4CC[C@@H](C3)[C@H]4C(=O)O)n2)c1 [Compound 264] | 21 nM | 12 µg/mL (≈ 21.5 µM) | 21 µg/mL (≈ 37.6 µM) | – |
| Cc1ccc(OCc2ccc(CN3CCN(C(=O)C4CC4)CC3)cc2C#N)c(-c2csc(N3C[C@H]4CC[C@@H](C3)[C@H]4C(=O)O)n2)c1 [Compound 265] | 42 nM | 1.9 µg/mL (≈ 3.04 µM) | 0.79 µg/mL (≈ 1.26 µM) | – |
| Cc1ccc(OCc2ccc(C(=O)N3CCOCC3)cc2C#N)c(-c2csc(N3C[C@H]4CC[C@@H](C3)[C@H]4C(=O)O)n2)c1 [Compound 266, 3-(4-{2-[2-cyano-4-(morpholine-4-carbonyl)-benzyloxy]-5-methyl-phenyl}-thiazole-2-yl)-3-aza-bicyclo[3.2.1]octane-8(syn)-carboxylic acid] | 42 nM | 70 µg/mL (≈ 122 µM) | 0.48 µg/mL (≈ 0.838 µM) | – |
| Cc1ccc(OCc2ccc(CN3CCS(=O)(=O)CC3)cc2C#N)c(-c2csc(N3C[C@H]4CC[C@@H](C3)[C@H]4C(=O)O)n2)c1 [Compound 267] | 44 nM | 13 µg/mL (≈ 21.4 µM) | < 0.1 µg/mL | – |
| Cc1ccc(OCc2ccc(C(=O)N3CCOCC3)cc2C)c(-c2csc(N3C[C@H]4CC[C@@H](C3)[C@H]4C(=O)O)n2)c1 [Compound 268] | 7.3 nM | 70 µg/mL (≈ 125 µM) | < 0.1 µg/mL | 38 µg/mL (≈ 67.7 µM) |
| Cc1ccc(OCc2ccc(CN3CCN(C)C(=O)C3)cc2C)c(-c2csc(N3C[C@H]4CC[C@@H](C3)[C@@]4(C)C(=O)O)n2)c1 [Compound 269] | 9.5 nM | 16 µg/mL (≈ 27.2 µM) | 0.28 µg/mL (≈ 0.476 µM) | – |
| Cc1ccc(OCc2ccc(CN3CCOCC3)cc2C)c(-c2csc(N3C[C@H]4CC[C@@H](C3)[C@@]4(C)C(=O)O)n2)c1 [Compound 270, 8-methyl-3-{4-[5-methyl-2-(2-methyl-4-morpholin-4-ylmethyl-benzyloxy)-phenyl]-thiazol-2-yl}-3-aza-bicyclo[3.2.1]octane-8(syn)-carboxylic acid] | 96 nM | – | 17 µg/mL (≈ 30.3 µM) | > 56 µg/mL |
| Cc1ccc(OCc2ccc(C(C)N3CCOCC3)cc2C)c(-c2csc(N3CC4CCC(C3)C4C(=O)O)n2)c1 (centres unmarked) [Compound 276] | 45 nM | 1.9 µg/mL (≈ 3.38 µM) | 32 µg/mL (≈ 57 µM) | 41 µg/mL (≈ 73 µM) |
| COc1cc(CN2CCOCC2)ccc1COc1ccc(C)cc1-c1csc(N2CCC(C(=O)O)CC2)n1 [Compound 278] | 51 nM | – | > 53 µg/mL | 30 µg/mL (≈ 55.8 µM) |
| Cc1ccc(OCc2ccc(CN3CCOCC3)cc2OC(F)(F)F)c(-c2csc(N3C[C@H]4CC[C@@H](C3)[C@H]4C(=O)O)n2)c1 [Compound 280] | 16 nM | 0.9 µg/mL (≈ 1.46 µM) | 0.72 µg/mL (≈ 1.17 µM) | – |
| Cc1ccc(OCc2ccc(C(=O)N3CCOCC3)c(C)c2)c(-c2csc(N3C[C@H]4CC[C@@H](C3)[C@H]4C(=O)O)n2)c1 [Compound 281] | 28 nM | 4.6 µg/mL (≈ 8.19 µM) | < 0.1 µg/mL | – |
| Cc1ccc(OCc2c(C)cc(C(=O)N3CCCCC3)cc2C)c(-c2csc(N3C[C@H]4CC[C@@H](C3)[C@H]4C(=O)O)n2)c1 [Compound 282] | 39 nM | 0.89 µg/mL (≈ 1.55 µM) | < 0.1 µg/mL | – |
| Cc1ccc(OCc2ccc(C(=O)N3CCCCC3)c(C)c2)c(-c2csc(N3C[C@H]4CC[C@@H](C3)[C@H]4C(=O)O)n2)c1 [Compound 283] | 60 nM | 0.1 µg/mL (≈ 0.179 µM) | < 0.1 µg/mL | – |
| Cc1ccc(OCc2c(C)cc(C(=O)N3CCN(C)C(=O)C3)cc2C)c(-c2csc(N3C[C@H]4CC[C@@H](C3)[C@H]4C(=O)O)n2)c1 [Compound 284] | 100 nM | 66 µg/mL (≈ 109 µM) | 0.65 µg/mL (≈ 1.08 µM) | – |
| Cc1ccc(OCc2c(C)cc(C(=O)N3CCOCC3)cc2C)c(-c2csc(N3C[C@H]4CC[C@@H](C3)[C@H]4C(=O)O)n2)c1 [Compound 285] | 120 nM | 54 µg/mL (≈ 93.8 µM) | < 0.1 µg/mL | – |
| Cc1ccc(OCc2ccc(C(=O)N3CCN(C)C(=O)C3)c(C)c2)c(-c2csc(N3C[C@H]4CC[C@@H](C3)[C@H]4C(=O)O)n2)c1 [Compound 286] | 37 nM | 83 µg/mL (≈ 141 µM) | 1 µg/mL (≈ 1.7 µM) | – |
| CCc1cc(C(=O)N2CCCCC2)ccc1COc1ccc(C)cc1-c1csc(N2C[C@H]3CC[C@@H](C2)[C@H]3C(=O)O)n1 [Compound 287] | 6.2 nM | 21 µg/mL (≈ 36.6 µM) | < 0.1 µg/mL | – |
| CCc1cc(C(=O)N2CCOCC2)ccc1COc1ccc(C)cc1-c1csc(N2C[C@H]3CC[C@@H](C2)[C@H]3C(=O)O)n1 [Compound 288] | 9.7 nM | 29 µg/mL (≈ 50.4 µM) | < 0.1 µg/mL | – |
